# Data: ChEMBL document CHEMBL2440076, “New triarylpyrazoles as broad-spectrum anticancer agents: design, synthesis, and biological evaluation” (Eur J Med Chem, 2013)
# Legend:
# Type in all cases: functional
# HCT-15 = assay: Growth inhibition of human HCT15 cells assessed as cell growth at 5X10'-9 M after 48 hrs by sulforhodamine B assay; conditions: HCT-15, 48 h, read-out: Activity
# U-251 = assay: Growth inhibition of human U251 cells assessed as cell growth at 5X10'-5 M after 48 hrs by sulforhodamine B assay; conditions: U-251, 48 h, read-out: Activity
# SF-295 [1] = assay: Growth inhibition of human SF295 cells assessed as cell growth at 5X10'-5 M after 48 hrs by sulforhodamine B assay; conditions: SF-295, 48 h, read-out: Activity
# HT-29 = assay: Growth inhibition of human HT-29 cells assessed as cell growth at 5X10'-5 M after 48 hrs by sulforhodamine B assay; conditions: HT-29, 48 h, read-out: Activity
# [2] = Growth inhibition of human HCC2998 cells assessed as cell growth at 5X10'-5 M after 48 hrs by sulforhodamine B assay; conditions: HCC 2998, 48 h, read-out: Activity
# NCI-H460 [3] = assay: Growth inhibition of human NCI-H460 cells assessed as cell growth at 5X10'-5 M after 48 hrs by sulforhodamine B assay; conditions: NCI-H460, 48 h, read-out: Activity
# K562 = assay: Growth inhibition of human K562 cells assessed as cell growth at 5X10'-5 M after 48 hrs by sulforhodamine B assay; conditions: K562, 48 h, read-out: Activity
# MDA-MB-468 = assay: Growth inhibition of human MDA-MB-468 cells assessed as cell growth at 5X10'-6 M after 48 hrs by sulforhodamine B assay; conditions: MDA-MB-468, 48 h, read-out: Activity
# NCI-H23 [4] = assay: Growth inhibition of human NCI-H23 cells assessed as cell growth at 5X10'-9 M after 48 hrs by sulforhodamine B assay; conditions: NCI-H23, 48 h, read-out: Activity
# SW-620 = assay: Growth inhibition of human SW620 cells assessed as cell growth at 5X10'-6 M after 48 hrs by sulforhodamine B assay; conditions: SW-620, 48 h, read-out: Activity
# NCI-H460 [5] = assay: Growth inhibition of human NCI-H460 cells assessed as cell growth at 5X10'-6 M after 48 hrs by sulforhodamine B assay; conditions: NCI-H460, 48 h, read-out: Activity
# DU-145 [6] = assay: Growth inhibition of human DU145 cells assessed as cell growth at 5X10'-7 M after 48 hrs by sulforhodamine B assay; conditions: DU-145, 48 h, read-out: Activity
# A498 = assay: Growth inhibition of human A498 cells assessed as cell growth at 5X10'-7 M after 48 hrs by sulforhodamine B assay; conditions: A498, 48 h, read-out: Activity
# OVCAR-8 = assay: Growth inhibition of human OVCAR8 cells assessed as cell growth at 5X10'-7 M after 48 hrs by sulforhodamine B assay; conditions: OVCAR-8, 48 h, read-out: Activity
# UACC-62 = assay: Growth inhibition of human UACC62 cells assessed as cell growth at 5X10'-7 M after 48 hrs by sulforhodamine B assay; conditions: UACC-62, 48 h, read-out: Activity
# UACC-257 [7] = assay: Growth inhibition of human UACC257 cells assessed as cell growth at 5X10'-7 M after 48 hrs by sulforhodamine B assay; conditions: UACC-257, 48 h, read-out: Activity
# M14 = assay: Growth inhibition of human M14 cells assessed as cell growth at 5X10'-7 M after 48 hrs by sulforhodamine B assay; conditions: M14, 48 h, read-out: Activity
# Malme-3M = assay: Growth inhibition of human MALME-3M cells assessed as cell growth at 5X10'-7 M after 48 hrs by sulforhodamine B assay; conditions: read-out: Activity
# SNB-19 = assay: Growth inhibition of human SNB19 cells assessed as cell growth at 5X10'-7 M after 48 hrs by sulforhodamine B assay; conditions: SNB-19, 48 h, read-out: Activity
# SF-539 [8] = assay: Growth inhibition of human SF539 cells assessed as cell growth at 5X10'-7 M after 48 hrs by sulforhodamine B assay; conditions: SF-539, 48 h, read-out: Activity
# KM12 = assay: Growth inhibition of human KM12 cells assessed as cell growth at 5X10'-7 M after 48 hrs by sulforhodamine B assay; conditions: KM12, 48 h, read-out: Activity
# A549 = assay: Growth inhibition of human A549/ATCC cells assessed as cell growth at 5X10'-7 M after 48 hrs by sulforhodamine B assay; conditions: A549, 48 h, read-out: Activity
# DU-145 [9] = assay: Growth inhibition of human DU145 cells assessed as cell growth at 5X10'-8 M after 48 hrs by sulforhodamine B assay; conditions: DU-145, 48 h, read-out: Activity
# RXF 393 = assay: Growth inhibition of human RXF393 cells assessed as cell growth at 5X10'-8 M after 48 hrs by sulforhodamine B assay; conditions: RXF 393, 48 h, read-out: Activity
# [10] = Growth inhibition of human NCI-ADR-RES cells assessed as cell growth at 5X10'-8 M after 48 hrs by sulforhodamine B assay; conditions: read-out: Activity
# OVCAR-3 = assay: Growth inhibition of human OVCAR3 cells assessed as cell growth at 5X10'-8 M after 48 hrs by sulforhodamine B assay; conditions: OVCAR-3, 48 h, read-out: Activity
# LOX IMVI = assay: Growth inhibition of human LOXIMVI cells assessed as cell growth at 5X10'-8 M after 48 hrs by sulforhodamine B assay; conditions: read-out: Activity
# SF-295 [11] = assay: Growth inhibition of human SF295 cells assessed as cell growth at 5X10'-8 M after 48 hrs by sulforhodamine B assay; conditions: SF-295, 48 h, read-out: Activity
# DU-145 [12] = assay: Growth inhibition of human DU145 cells assessed as cell growth at 5X10'-5 M after 48 hrs by sulforhodamine B assay; conditions: DU-145, 48 h, read-out: Activity
# ACHN = assay: Growth inhibition of human ACHN cells assessed as cell growth at 5X10'-5 M after 48 hrs by sulforhodamine B assay; conditions: read-out: Activity
# SK-OV-3 = assay: Growth inhibition of human SKOV3 cells assessed as cell growth at 5X10'-5 M after 48 hrs by sulforhodamine B assay; conditions: SK-OV-3, 48 h, read-out: Activity
# UACC-257 [13] = assay: Growth inhibition of human UACC257 cells assessed as cell growth at 5X10'-5 M after 48 hrs by sulforhodamine B assay; conditions: UACC-257, 48 h, read-out: Activity
# NCI-H23 [14] = assay: Growth inhibition of human NCI-H23 cells assessed as cell growth at 5X10'-8 M after 48 hrs by sulforhodamine B assay; conditions: NCI-H23, 48 h, read-out: Activity
# [15] = Growth inhibition of human Hs 578T cells assessed as cell growth at 5X10'-9 M after 48 hrs by sulforhodamine B assay; conditions: read-out: Activity
# MCF7 = assay: Growth inhibition of human MCF7 cells assessed as cell growth at 5X10'-9 M after 48 hrs by sulforhodamine B assay; conditions: MCF7, 48 h, read-out: Activity
# SK-MEL-5 = assay: Growth inhibition of human SK-MEL-5 cells assessed as cell growth at 5X10'-9 M after 48 hrs by sulforhodamine B assay; conditions: SK-MEL-5, 48 h, read-out: Activity
# SF-539 [16] = assay: Growth inhibition of human SF539 cells assessed as cell growth at 5X10'-9 M after 48 hrs by sulforhodamine B assay; conditions: SF-539, 48 h, read-out: Activity
SMILES,growth at 0.005 µM (HCT-15),growth at 50 µM (U-251),growth at 50 µM (SF-295 [1]),growth at 50 µM (HT-29),growth at 50 µM [2],growth at 50 µM (NCI-H460 [3]),growth at 50 µM (K562),growth at 5 µM (MDA-MB-468),growth at 0.005 µM (NCI-H23 [4]),growth at 5 µM (SW-620),growth at 5 µM (NCI-H460 [5]),growth at 0.5 µM (DU-145 [6]),growth at 0.5 µM (A498),growth at 0.5 µM (OVCAR-8),growth at 0.5 µM (UACC-62),growth at 0.5 µM (UACC-257 [7]),growth at 0.5 µM (M14),growth at 0.5 µM (Malme-3M),growth at 0.5 µM (SNB-19),growth at 0.5 µM (SF-539 [8]),further results
COc1cc(-c2nn(-c3cccc(NC(=O)Nc4cc(C(F)(F)F)cc(C(F)(F)F)c4)c3)cc2-c2ccncc2)ccc1Cl,97%,-78%,-73%,-77%,-88%,-59%,-16%,-42%,99%,-51%,-41%,86%,59%,51%,66%,82%,71%,83%,61%,85%,growth at 0.5 µM (KM12): 53%; growth at 0.5 µM (A549): 52%; growth at 0.05 µM (DU-145 [9]): 111%; growth at 0.05 µM (RXF 393): 92%; growth at 0.05 µM [10]: 106%; growth at 0.05 µM (OVCAR-3): 109%; growth at 0.05 µM (LOX IMVI): 105%; growth at 0.05 µM (SF-295 [11]): 94%; growth at 50 µM (DU-145 [12]): -80%; growth at 50 µM (ACHN): -34%; growth at 50 µM (SK-OV-3): -62%; growth at 50 µM (UACC-257 [13]): -54%; growth at 0.05 µM (NCI-H23 [14]): 100%; growth at 0.005 µM [15]: 96%; growth at 0.005 µM (MCF7): 92%; growth at 0.005 µM (SK-MEL-5): 99%; growth at 0.005 µM (SF-539 [16]): 88%
COc1cc(-c2nn(-c3cccc(NC(=O)Nc4ccc(Cl)c(Cl)c4)c3)cc2-c2ccncc2)ccc1Cl,95%,-49%,-42%,-19%,-19%,2%,3%,-29%,97%,11%,4%,90%,80%,73%,75%,83%,78%,82%,84%,78%,growth at 0.5 µM (KM12): 70%; growth at 0.5 µM (A549): 60%; growth at 0.05 µM (DU-145 [9]): 110%; growth at 0.05 µM (RXF 393): 94%; growth at 0.05 µM [10]: 106%; growth at 0.05 µM (OVCAR-3): 111%; growth at 0.05 µM (LOX IMVI): 101%; growth at 0.05 µM (SF-295 [11]): 88%; growth at 50 µM (DU-145 [12]): -1%; growth at 50 µM (ACHN): 5%; growth at 50 µM (SK-OV-3): 6%; growth at 50 µM (UACC-257 [13]): -30%; growth at 0.05 µM (NCI-H23 [14]): 101%; growth at 0.005 µM [15]: 99%; growth at 0.005 µM (MCF7): 91%; growth at 0.005 µM (SK-MEL-5): 98%; growth at 0.005 µM (SF-539 [16]): 94%
COc1cc(-c2nn(-c3cccc(NC(=O)Nc4cccc(C(F)(F)F)c4)c3)cc2-c2ccncc2)ccc1Cl,100%,-84%,-77%,-79%,-79%,-35%,1%,-33%,96%,5%,-11%,90%,73%,65%,74%,83%,73%,94%,74%,79%,growth at 0.5 µM (KM12): 55%; growth at 0.5 µM (A549): 62%; growth at 0.05 µM (DU-145 [9]): 101%; growth at 0.05 µM (RXF 393): 101%; growth at 0.05 µM [10]: 97%; growth at 0.05 µM (OVCAR-3): 102%; growth at 0.05 µM (LOX IMVI): 95%; growth at 0.05 µM (SF-295 [11]): 91%; growth at 50 µM (DU-145 [12]): 1%; growth at 50 µM (ACHN): -7%; growth at 50 µM (SK-OV-3): 2%; growth at 50 µM (UACC-257 [13]): -87%; growth at 0.05 µM (NCI-H23 [14]): 95%; growth at 0.005 µM [15]: 96%; growth at 0.005 µM (MCF7): 94%; growth at 0.005 µM (SK-MEL-5): 99%; growth at 0.005 µM (SF-539 [16]): 95%
